# From patent publication US12338203B2 (TAISHO PHARMACEUTICAL CO., LTD., priority 2019, dated 2025)
# Molecular target: T1, human LPAR1 (Homo sapiens, UniProt Q92633)
# T1 construct: expressed in transfected cells
# Assay: Test Example 1: antagonism against response of LPA-induced increase in intracellular Ca2+ concentration in RH7777 cells stably expressing human LPAR1
# Type: cell-based
# Conditions: RH7777 cells stably expressing human LPAR1; Fluo-4 fluorescence, FDSS6000; read-out: IC50 value (concentration producing 50% antagonism against response of LPA-induced increase in intracellular Ca2+ concentration) (converted)
# Method in brief: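 RH7777 cells stably transfected with human LPAR1 were preincubated with test compound 30 min at 37 °C in HBSS/20 mM HEPES/probenecid/0.05% BSA buffer, pH 7.4, then LPA-stimulated.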
# T1 sequence (Q92633 whole entry): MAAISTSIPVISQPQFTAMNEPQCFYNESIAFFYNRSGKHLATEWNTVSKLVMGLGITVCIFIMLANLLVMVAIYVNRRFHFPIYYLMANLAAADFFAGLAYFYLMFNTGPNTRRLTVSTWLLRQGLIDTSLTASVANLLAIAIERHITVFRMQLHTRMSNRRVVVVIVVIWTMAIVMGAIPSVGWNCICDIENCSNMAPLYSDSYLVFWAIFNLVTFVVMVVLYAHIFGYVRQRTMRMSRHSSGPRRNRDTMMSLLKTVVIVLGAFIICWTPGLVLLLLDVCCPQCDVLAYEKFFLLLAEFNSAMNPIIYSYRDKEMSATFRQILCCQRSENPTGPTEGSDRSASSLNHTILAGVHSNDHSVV
row,Compound,IC50 [nM]
1,CCOc1cc([C@@H](C)N(CCOCc2ccccc2)C(=O)NC2(C(=O)O)CC(OC)C2)cc(OCC)c1C(C)=O (stereo partly shown) [Example 4-108],3.6
2,"CCOc1cc(C(CO)N(CCCCc2ccccc2)C(=O)NC2(C(=O)O)CC(F)(F)C2)cc(OCC)c1C(C)=O (stereo not shown) [Example 3-4, 1-({[1-(4-Acetyl-3,5-Diethoxyphenyl)-2-Hydroxyethyl](4-Phenylbutyl) Carbamoyl}Amino)-3,3-Difluorocyclobutane-1-Carboxylic Acid]",4.03
3,CCOc1cc(C(C)N(CCCCc2ccccc2)C(=O)NC2(C(=O)O)CC(OCC)C2)cc(OCC)c1C(C)=O (stereo not shown) [Example 1-96],2.11
4,"CCOc1cc([C@@H](C)N(CCCC(F)(F)c2ccccc2)C(=O)NC2(C(=O)O)CC(OC)C2)cc(OCC)c1C(C)O (single isomer, unassigned) [Example 4-62]",5.15
5,"CCOc1cc([C@@H](C)N(CCCCc2ccccc2)C(=O)NC2(C(=O)O)CC(F)(F)C2)cc(OCC)c1C(C)O (single isomer, unassigned) [Example 1-36]",1.04
6,CCOc1cc(C(C)N(CCCCc2ccccc2)C(=O)NC(Cc2ccccc2)C(=O)O)cc(OCC)c1C (stereo not shown) [Example 1-8],125
7,CCOc1cc([C@@H](C)N(CCO[C@@H](C)c2cccc(Cl)c2)C(=O)NC2(C(=O)O)CC(F)(F)C2)c(Cl)c(OCC)c1C(C)=O [Example 4-177],4.02
8,CCOc1cc([C@@H](C)N(CCOCc2ccccc2)C(=O)NC2(C(=O)O)CC(F)(F)C2)cc(OCC)c1C(C)O (stereo partly shown) [Example 4-103],1.98
9,CCOc1cc([C@@H](C)N(CCO[C@@H](C)c2ccccc2)C(=O)NC2(C(=O)O)CCC2)cc(OCC)c1C1CC1 [Example 4-115],1.23

# Other lines, results leading:
row,IC50 [nM],Compound
1,1.98,CCOc1cc(C(C)N(CCOCc2ccccc2)C(=O)NC2(C(=O)O)CC(OCC)C2)c(Cl)c(OCC)c1C(C)=O (stereo not shown) [Example 5-212]
2,21.5,CCOc1cc(C(C)N(CCC(F)(F)Cc2ccccc2)C(=O)NC2(c3nn[nH]n3)CC(F)(F)C2)c(Cl)c(OCC)c1C(C)=O (stereo not shown) [Example 10-12]
3,4520,O=C(NC1(C(=O)O)CCCC1)N(CCCCc1ccccc1)Cc1cccc(Cl)c1 [Example 5-2]
4,2840,CCOC(=O)C1(NC(=O)N(CCO[C@@H](C)c2ccccc2)C(C)c2cc(OCC)c(C(C)=O)c(OCC)c2Cl)CC1 (stereo partly shown) [Example 6-8]
5,32.9,CCOc1cc(C(C)N(CCCCc2ccccc2)C(=O)NC2CC(C(=O)O)C2)c(Cl)c(OCC)c1C(C)=O (stereo not shown) [Example 5-45]
6,22.2,"O=C(NC1(C(=O)O)CC(F)(F)C1)N(CCCCc1ccccc1)C1CCc2c(Cl)cc(Cl)cc21 (stereo not shown) [Example 5-116, 1-{[(4,6-Dichloro-2,3-Dihydro-1H-Inden-1-Yl) (4-Phenylbutyl) Carbamoyl]Amino}-3,3-Difluorocyclobutane-1-Carboxylic Acid]"
7,2.75,"CCOc1cc([C@@H](C)N(CCCCc2ccccc2)C(=O)NC2(C(=O)NS(C)(=O)=O)CC(F)(F)C2)cc(OCC)c1C(C)=O [Example 7-1, 1-({[(1R)-1-(4-Acetyl-3,5-Diethoxyphenyl)Ethyl](4-Phenylbutyl) Carbamoyl}Amino)-3,3-Difluoro-N-(Methanesulfonyl)Cyclobutane-1-Carboxamide]"
8,7.9,COc1cc(C(C)N(CCOCc2ccccc2)C(=O)NC2(C(=O)O)CCC2)cc(OC)c1C(C)=O (stereo not shown) [Example 5-130]
9,2.77,COc1cc(C(C)N(CCOCc2ccccc2)C(=O)NC2(C(=O)O)CCOCC2)c(C)c(OC)c1C1CC1 (stereo not shown) [Example 5-177]
10,3.36,CCOc1cc(C(C)N(CCCCc2ccccc2)C(=O)NC2(C(=O)O)CC(F)(F)C2)c(Cl)c(OCC)c1C (stereo not shown) [Example 5-84]
11,7.97,CCOC1CC(NC(=O)N(CCOC(C)c2ccccc2)C(C)c2cc(OC)c(C3CC3)c(OC)c2C)(C(=O)O)C1 (stereo not shown) [Example 5-169]
12,2.77,CCOc1cc([C@@H](C)N(CCO[C@@H](C)c2ccccc2)C(=O)NC2(C(=O)O)CCOCC2)c(Cl)c(OCC)c1C(C)=O [Example 5-33]
13,292,CCOc1cc([C@@H](C)N(CCOCc2ccccc2)C(=O)NC2CC(C(=O)O)C2)c(Cl)c(OCC)c1C(C)=O (stereo partly shown) [Example 5-37]
